Reference: US12365655B2, “Compounds” (CTXT PTY LTD, priority 2018, dated 2025)

Key:
MOZ-KAT6A = MOZ-KAT6A (Homo sapiens, UniProt Q92794, A567V); assay: Acetyltransferase biochemical assay (AlphaScreen), KAT6A
HBO-KAT7 = HBO-KAT7 (Homo sapiens, UniProt O95251); assay: Acetyltransferase biochemical assay (AlphaScreen), KAT7
TIP60-KAT5 = TIP60-KAT5 (Homo sapiens, UniProt Q92993); assay: Acetyltransferase biochemical assay (AlphaScreen), KAT5
Chain of TIP60-KAT5 (Q92993 with tags, fused parts or gaps isoform Q92993-2): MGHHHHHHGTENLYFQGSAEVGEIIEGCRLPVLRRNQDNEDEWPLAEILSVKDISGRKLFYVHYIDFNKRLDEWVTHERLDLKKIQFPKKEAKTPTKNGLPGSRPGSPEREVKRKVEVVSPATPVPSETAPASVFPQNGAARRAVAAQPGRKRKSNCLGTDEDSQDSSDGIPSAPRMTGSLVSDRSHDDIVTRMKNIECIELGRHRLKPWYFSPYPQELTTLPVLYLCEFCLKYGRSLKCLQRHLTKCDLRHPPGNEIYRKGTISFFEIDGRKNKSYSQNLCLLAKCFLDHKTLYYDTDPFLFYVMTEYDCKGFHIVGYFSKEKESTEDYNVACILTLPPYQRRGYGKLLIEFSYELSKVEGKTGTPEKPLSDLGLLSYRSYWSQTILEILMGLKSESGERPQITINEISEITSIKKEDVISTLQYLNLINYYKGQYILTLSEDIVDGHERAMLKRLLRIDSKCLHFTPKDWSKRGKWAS

Chain of HBO-KAT7 (O95251 with tags, fused parts or gaps): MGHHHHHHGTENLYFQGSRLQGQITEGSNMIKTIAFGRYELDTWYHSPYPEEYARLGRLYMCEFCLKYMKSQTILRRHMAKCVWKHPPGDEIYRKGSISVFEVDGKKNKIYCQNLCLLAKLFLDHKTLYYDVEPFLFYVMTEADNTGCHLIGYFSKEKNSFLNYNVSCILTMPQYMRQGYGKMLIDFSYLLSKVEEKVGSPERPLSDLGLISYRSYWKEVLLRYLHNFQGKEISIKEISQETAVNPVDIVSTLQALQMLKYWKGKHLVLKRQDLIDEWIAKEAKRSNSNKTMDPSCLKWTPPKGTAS
Chain of MOZ-KAT6A (Q92794 with tags, fused parts or gaps A567V): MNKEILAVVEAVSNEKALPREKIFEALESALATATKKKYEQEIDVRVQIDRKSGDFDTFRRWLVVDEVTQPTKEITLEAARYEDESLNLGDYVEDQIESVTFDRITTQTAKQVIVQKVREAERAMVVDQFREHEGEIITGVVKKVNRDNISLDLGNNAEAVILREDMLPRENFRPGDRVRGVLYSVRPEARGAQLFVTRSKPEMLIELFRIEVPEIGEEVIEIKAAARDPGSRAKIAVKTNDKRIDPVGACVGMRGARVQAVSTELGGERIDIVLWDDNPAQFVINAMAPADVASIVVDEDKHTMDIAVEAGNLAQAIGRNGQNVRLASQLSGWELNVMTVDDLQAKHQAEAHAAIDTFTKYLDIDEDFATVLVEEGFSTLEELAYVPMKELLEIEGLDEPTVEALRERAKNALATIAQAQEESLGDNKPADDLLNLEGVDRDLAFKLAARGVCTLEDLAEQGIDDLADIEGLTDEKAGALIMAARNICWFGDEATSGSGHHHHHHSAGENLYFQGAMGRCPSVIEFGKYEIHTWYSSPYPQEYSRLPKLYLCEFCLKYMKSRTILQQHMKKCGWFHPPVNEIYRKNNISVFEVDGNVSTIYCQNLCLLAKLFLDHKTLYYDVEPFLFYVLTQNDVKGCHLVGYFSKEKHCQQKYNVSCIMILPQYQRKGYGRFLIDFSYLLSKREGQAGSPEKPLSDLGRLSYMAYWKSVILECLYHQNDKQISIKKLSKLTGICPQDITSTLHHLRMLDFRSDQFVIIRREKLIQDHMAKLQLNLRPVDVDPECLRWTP

IC50 (MOZ-KAT6A) [µM]	IC50 (HBO-KAT7) [µM]	IC50 (TIP60-KAT5) [µM]	SMILES
11	13	27.9	O=S(=O)(Nc1noc2cccc(Cl)c12)c1cccc2ccccc12 [Example 124, N-(4-Chlorobenzo[d]isoxazol-3-yl)naphthalene-1-sulfonamide]
24.5	85.8	> 125	CCc1ccc(OC)c(S(=O)(=O)Nc2noc3cc(-n4ccnn4)ccc23)c1 [Example 125]
10.5	28.9	51.3	CCc1ccc(OC)c(S(=O)(=O)Nc2noc3cc(-c4ncccn4)ccc23)c1 [Example 126, 5-Ethyl-2-methoxy-N-(6-(pyrimidin-2-yl)benzo[d]isoxazol-3-yl)benzenesulfonamide]
9.16	9.49	49.7	O=S(=O)(Nc1noc2cccc(Cl)c12)c1cc(Br)cc2c1OCC2 [Example 127, 5-bromo-N-(4-chlorobenzo[d]isoxazol-3-yl)-2,3-dihydrobenzofuran-7-sulfonamide]
0.25	0.618	6.3	CCc1ccc(OC)c(S(=O)(=O)Nc2noc3ccc(Br)c(Cl)c23)c1 [Example 128, N-(5-bromo-4-chlorobenzo[d]isoxazol-3-yl)-5-ethyl-2-methoxy benzenesulfonamide]
0.772	1.32	18.5	CCc1ccc(OC)c(S(=O)(=O)Nc2noc3cccc(Br)c23)c1 [Example 129]
2.96	21.7	> 125	CCc1ccc(OC)c(S(=O)(=O)Nc2noc3cc(-n4nccn4)ccc23)c1 [Example 130]
3.11	23.8	69.7	CCc1ccc(OC)c(S(=O)(=O)Nc2noc3cc(-n4cccn4)ccc23)c1 [Example 131]
4.45	5.34	45.7	CCc1ccc(OC)c(S(=O)(=O)Nc2noc3c(OCC4CC4)cccc23)c1 [Example 133]
6.45	27.6	51.5	CCc1ccc(OC)c(S(=O)(=O)Nc2noc3cc(OCC4CC4)ccc23)c1 [Example 134]
0.563	1.43	4.79	CCc1ccc(OC)c(S(=O)(=O)Nc2noc3ccc(Br)cc23)c1 [Example 135]
34.3	28.3	> 125	CCc1ccc(OC)c(S(=O)(=O)Nc2noc3c(-c4ncccn4)cccc23)c1 [Example 136, 5-Ethyl-2-methoxy-N-(7-(pyrimidin-2-yl)benzo[d]isoxazol-3-yl)benzenesulfonamide]
8.58	6.56	14.2	CCc1ccc(OC)c(S(=O)(=O)Nc2noc3c(Br)cccc23)c1 [Example 137]
2.89	3.68	5.11	CCc1ccc(OC)c(S(=O)(=O)Nc2noc3cc(Br)ccc23)c1 [Example 138]
2.14	10	34.3	CCOc1ccc2c(NS(=O)(=O)c3cc(CC)ccc3OC)noc2c1 [Example 139]
2.26	9.9	47.8	CCc1ccc(OC)c(S(=O)(=O)Nc2noc3cc(-c4ccccn4)ccc23)c1 [Example 140, 5-Ethyl-2-methoxy-N-(6-(pyridin-2-yl)benzo[d]isoxazol-3-yl)benzenesulfonamide]
39.6	24.3	> 125	COc1cc(Br)ccc1S(=O)(=O)Nc1noc2ccccc12 [Example 141]
3.3	1.16	32.2	COc1cccc(OC)c1S(=O)(=O)Nc1noc2c(-c3ccccc3)ccc(OC)c12 [Example 142, 2,6-Dimethoxy-N-(4-methoxy-7-phenylbenzo[d]isoxazol-3-yl)benzenesulfonamide]
4.97	8.04	50	CCc1ccc(OC)c(S(=O)(=O)Nc2noc3ccc(Cl)cc23)c1 [Example 150]
6.28	9.87	38.9	CCc1ccc(OC)c(S(=O)(=O)Nc2noc3c(F)cccc23)c1 [Example 152]
0.437	0.507	4.05	CCc1ccc(OC)c(S(=O)(=O)Nc2noc3ccc(C)c(Cl)c23)c1 [Example 153]
1.54	1.97	> 125	COc1ccccc1S(=O)(=O)Nc1noc2cccc(F)c12 [Example 156]
23	15.5	> 125	COc1ccccc1S(=O)(=O)Nc1noc2cc(Br)ccc12 [Example 157]
62.6	44.9	> 125	COc1ccccc1S(=O)(=O)Nc1noc2cc(Cl)ccc12 [Example 158]

IC50 (MOZ-KAT6A) [µM]	IC50 (HBO-KAT7) [µM]	IC50 (TIP60-KAT5) [µM]	SMILES
66.6	37.6	> 125	O=S(=O)(Nc1noc2cccc(Cl)c12)c1cccc2ccncc12 [Example 159, N-(4-chlorobenzo[d]isoxazol-3-yl)isoquinoline-8-sulfonamide]
1.05	1.58	46.2	COCc1cc(OC)c2c(NS(=O)(=O)c3c(OC)cccc3OC)noc2c1I [Example 160]
8.67	6.85	32.2	COc1ccc(S(=O)(=O)Nc2noc3cc(CO)ccc23)c(OC)c1 [Example 167]
24.8	8.65	63.2	COc1ccc(S(=O)(=O)Nc2noc3cc(C#N)c(C)cc23)c(OC)c1 [Example 169]
2.86	13.5	32.1	CCc1ccc(OC)c(S(=O)(=O)Nc2noc3cc(-c4ccccc4)ccc23)c1 [Example 179, 5-Ethyl-2-methoxy-N-(6-phenylbenzo[d]isoxazol-3-yl)benzenesulfonamide]
9.44	1.76	25.5	O=S(=O)(Nc1noc2cccc(Cl)c12)c1cccc2c1OCC2 [Example 180, N-(4-Chlorobenzo[d]isoxazol-3-yl)-2,3-dihydrobenzofuran-7-sulfonamide]
1.06	5.14	23.8	CCc1cc2c(c(S(=O)(=O)Nc3noc4cccc(Cl)c34)c1)OCC2 [Example 181, N-(4-Chlorobenzo[d]isoxazol-3-yl)-5-ethyl-2,3-dihydrobenzofuran-7-sulfonamide]
15.2	15.6	65.6	CCc1ccc(S(=O)(=O)Nc2noc3ccccc23)c(OC)c1 [Example 182]
5.6	4.48	33.2	COc1cc(-c2ccccc2)ccc1S(=O)(=O)Nc1noc2ccccc12 [Example 183, N-(Benzo[d]isoxazol-3-yl)-3-methoxy-[1,1-biphenyl]-4-sulfonamide]
> 125	31	> 125	CCc1ccc(OC)c(S(=O)(=O)Nc2noc3c(C(=O)NC)cccc23)c1 [Example 184, 3-(5-Ethyl-2-methoxyphenylsulfonamido)-N-methylbenzo[d]isoxazole-7-carboxamide]
105	60.7	> 125	CCc1ccc(OC)c(S(=O)(=O)Nc2noc3c(C(=O)N(C)C)cccc23)c1 [Example 185, 3-(5-Ethyl-2-methoxyphenylsulfonamido)-N,N-dimethylbenzo[d]isoxazole-7-carboxamide]
25.2	47.1	84.7	CCc1ccc(OC)c(S(=O)(=O)Nc2noc3c(CO)cccc23)c1 [Example 186]
5.66	22	65.3	CCc1ccc(OC)c(S(=O)(=O)Nc2noc3c(C)cccc23)c1 [Example 187, 5-Ethyl-2-methoxy-N-(7-methylbenzo[d]isoxazol-3-yl)benzenesulfonamide]
9.23	40.1	69.9	CCc1ccc(OC)c(S(=O)(=O)Nc2noc3c(CC)cccc23)c1 [Example 188]
4.35	8.02	32	CCc1ccc(OC)c(S(=O)(=O)Nc2noc3c(C4CC4)cccc23)c1 [Example 189]
9.73	18.5	19.9	CCc1ccc(OC)c(S(=O)(=O)Nc2noc3c(C4CCCCC4)cccc23)c1 [Example 190]
9.39	24.2	29.9	CCc1ccc(OC)c(S(=O)(=O)Nc2noc3c(-c4cncnc4)cccc23)c1 [Example 192, 5-Ethyl-2-methoxy-N-(7-(pyrimidin-5-yl)benzo[d]isoxazol-3-yl)benzenesulfonamide]
1.95	15.5	53.1	CCc1ccc(OC)c(S(=O)(=O)Nc2noc3cc(C)ccc23)c1 [Example 193, 5-Ethyl-2-methoxy-N-(6-methylbenzo[d]isoxazol-3-yl)benzenesulfonamide]
1.51	6.87	37.8	CCc1ccc(OC)c(S(=O)(=O)Nc2noc3cc(CC)ccc23)c1 [Example 194]
1.32	4.96	16.7	CCc1ccc(OC)c(S(=O)(=O)Nc2noc3cc(C4CC4)ccc23)c1 [Example 195]
13.9	23.3	95.4	CCc1ccc(OC)c(S(=O)(=O)Nc2noc3cc(-c4cnn(C)c4)ccc23)c1 [Example 196, 5-Ethyl-2-methoxy-N-(6-(1-methyl-1H-pyrazol-4-yl)benzo[d]isoxazol-3-yl)benzenesulfonamide]
21	45.7	> 125	CCc1ccc(OC)c(S(=O)(=O)Nc2noc3cc(-c4cncnc4)ccc23)c1 [Example 197, 5-Ethyl-2-methoxy-N-(6-(pyrimidin-5-yl)benzo[d]isoxazol-3-yl)benzenesulfonamide]
2.82	6.95	73.7	CCc1ccc(OC)c(S(=O)(=O)Nc2noc3cccc(C)c23)c1 [Example 198, 5-Ethyl-2-methoxy-N-(4-methylbenzo[d]isoxazol-3-yl)benzenesulfonamide]
